Test results from PubChem BioAssay (NCI).
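Exposure lasted 48 hours, with cells grown in 96-well plates and compounds tested at five concentrations. Abbreviation: GI50, concentration required for 50% inhibition of growth. TGI marks complete inhibition of growth.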

How the values were obtained:
Test in all cases: NCI tumour cell line growth inhibition, 48 h
T-47D breast = tested on: T-47D breast
MDA-N = tested on: MDA-N
XF 498 CNS = tested on: XF 498 CNS
DMS 273 small cell lung = tested on: DMS 273 small cell lung
SNB-78 CNS = tested on: SNB-78 CNS
RXF-631 renal = tested on: RXF-631 renal
P388 leukemia = tested on: P388 leukemia
SN12K1 renal = tested on: SN12K1 renal
P388/ADR leukemia = tested on: P388/ADR leukemia

SMILES	TGI (T-47D breast) [µM]	GI50 (T-47D breast) [µM]	TGI (XF 498 CNS) [µM]	TGI (DMS 273 small cell lung) [µM]	TGI (SNB-78 CNS) [µM]	also measured
CCCC(=O)Nc1cc2c3c(c1)CCCN3CCC2	> 10					TGI (MDA-N): > 10 µM
NCCNc1c2c(c(NCCN)c3[nH]ccc13)C(=O)c1ccccc1C2=O	> 100	1.63				
Nc1c(C(=O)Nc2ccncc2)sc2nc3c(cc12)CCCCCCCC3	2.21	0.94				
CCCc1nc(NC#N)nc(C(=O)Nc2ccccc2)c1CC			> 100	> 100	> 100	TGI (RXF-631 renal): > 100 µM
CN(C)CC1CCCC/C1=N/OC(=O)c1ccc(Cl)cc1 (configuration not stated)			> 100	> 100	> 100	
COC(=O)C(Cc1nc2ccc(Cl)cc2[nH]c1=O)/C(=N\N)C(=O)Nc1cc(C)c(Cl)cc1S(=O)(=O)O (configuration not stated)					> 100	
CC12CP(=O)(c3ccccc3)CC1C2(Cl)Cl (configuration not stated)			> 100	> 100	> 100	
CN1CCOC(c2ccccc2)O1 (configuration not stated)				> 100	> 100	TGI (RXF-631 renal): > 100 µM
Cc1ccc(NC(=O)CC2CC2)cc1-c1ccc(C(=O)NCC2CC2)cc1	> 25	> 17.3				
N#Cc1c2ccccc2cn1-c1ccc(F)cc1			> 100			
Cc1cc(N(CCC#N)CCC#N)ccc1N=Nc1ccc(C(=O)O)cc1			> 100	> 100	> 100	
CN(C)C(n1cc2c(c1)-c1ccc(Cl)cc1C(c1ccccc1F)=NC2)n1cc2c(c1)-c1ccc(Cl)cc1C(c1ccccc1F)=NC2	> 100					TGI (MDA-N): 52.7 µM
COc1cc2c3c(n(C)c(=O)c2cc1OC)-c1cc2c(cc1/C3=C\CN)OCO2	0.639	0.0176				
Cc1ccccc1N1C(=O)C2C=CC(n3[nH]c(=O)n(Cc4ccccc4)c3=O)CC2C1=O (configuration not stated)			> 100	> 100	> 100	
CCCNC(=S)NNC(=O)CSc1nc(-c2ccccc2)c(-c2ccccc2)[nH]1			> 100	> 100	> 100	
Nc1nc(/C=C\c2ccc([N+](=O)[O-])s2)nc(N2CCCC2)n1	14.1	1.68				
O=C(CCc1n[nH]c(=S)o1)Nc1ccccc1C(F)(F)F				> 100	> 100	TGI (RXF-631 renal): > 100 µM
C1=CC(N(c2ccccc2)C2C=CCCC2)CCC1 (configuration not stated)				> 100		

SMILES	TGI (T-47D breast) [µM]	GI50 (T-47D breast) [µM]	TGI (XF 498 CNS) [µM]	TGI (DMS 273 small cell lung) [µM]	TGI (SNB-78 CNS) [µM]	also measured
CCOc1ccc(NC(=O)CC#N)cc1			> 100	> 100	> 100	TGI (RXF-631 renal): > 100 µM
O=C(Nc1ccncc1)C(=O)c1cn(S(=O)(=O)c2ccc(F)cc2)c2ccccc12	61	2.24				
CNCC#Cc1c(F)ccc2c1/C(=C/c1[nH]ccc1OC)C(=O)N2	4.36	0.671				
O=C(c1ccccc1)c1cc2ccccc2o1	> 100	83.3				
CCN1CCC(O)(c2ccc(OC)cc2)C(C(=O)c2ccc(OC)cc2)C1 (configuration not stated)			31.7	50.2	59.3	TGI (RXF-631 renal): 47.5 µM
CN(C)CC[PH+](c1ccccc1)c1ccccc1.CN(C)CC[PH+](c1ccccc1)c1ccccc1.[Cl-].[Pd+2]	> 100	> 100				GI50 (MDA-N): > 100 µM; TGI (MDA-N): > 100 µM
COc1cc(-c2cc(-c3cc4c([nH]c5ccccc54)c(-c4cc(OC)c(OC)c(OC)c4)n3)cc(-c3ccccc3)n2)cc(OC)c1OC	35.4	2.8				
O=C1Nc2ccccc2/C1=N\[O-].O=C1Nc2ccccc2/C1=N\[O-].[Cu+2]	> 100	> 100				GI50 (MDA-N): > 100 µM; TGI (MDA-N): > 100 µM
NC(=O)C12CC3CC(CC(F)(C3)C1)C2			> 100	> 100	> 100	
S=c1sc2c(Cl)nc(Cl)nc2n1-c1ccccc1			> 100	> 100	> 100	
Cc1ccc(/C=C/C(=O)c2sc(-c3nc(C)c(C(=O)/C=C/c4ccc(C)cc4)s3)nc2C)cc1				> 100	> 100	TGI (RXF-631 renal): > 100 µM
Oc1cccnc1[Se]	> 100					TGI (MDA-N): > 100 µM
COc1ccc(C(=O)/C=C/c2cc(-c3cc(OC)c(OC)c(OC)c3)n[nH]2)cc1OC	4.36	1.63				
CCOc1ccccc1NC(=O)C(=O)CC(=O)c1sc(Nc2nnc(-c3ccc(Cl)c(Cl)c3)o2)nc1C				> 100	> 100	
COc1ccc2[nH]cc(C3(c4c[nH]c5ccc(OC)cc45)C(=O)Nc4ccc(F)cc43)c2c1	14.9	3.04				
COc1cccc(C2=NC(C(C)C)CO2)c1 (configuration not stated)			> 100	> 100	> 100	
COc1cc(NCc2ccc3nc(N)nc(N)c3c2C)cc(OC)c1OC (tested in a mixture with another compound)	65.7		8.19	12.3	116	TGI (P388 leukemia): 10 µM; TGI (SN12K1 renal): 36.6 µM; TGI (P388/ADR leukemia): 12.7 µM; GI50 (MDA-N): 0.025 µM; TGI (MDA-N): 44.9 µM
COc1ccc(-c2nn(-c3ccc(NC(=O)c4ccc(Cl)c(Cl)c4)cc3)cc2-c2ccncc2)cc1Cl	> 50	> 50				
